Laboratory results published in ChEMBL document CHEMBL6178023 (J Med Chem, 2025).
pEC50, pIC50: −log10 of the molar value. Converted amounts (≈) assume the structure as drawn. The source made the active and inactive calls. No cut-off for these calls is given here.

How the values were obtained:
[1] = Aqueous solubility of compound in PBS at pH 7.4; format: physicochemical
Chikungunya virus [2] = test: Antiviral activity against CHIKV 181/25 expressing nLuc-capsid gene infected in human MRC5 cells assessed as reduction in viral replication preincubated with cells for 1 hr followed by viral infection measured after 6 hrs post-infection by Nano-glo luciferase assay; format: functional, organism-based; settings: for EC50: 181/25, MRC5, read-out: pEC50 (converted)
MRC5 = test: Cytotoxicity against human MRC5 cells at 10 to 40 uM by Cell Titer Glo assay; format: toxicity, cell-based; settings: mrc5, 40 µM, dose 10-40 µM
Polyprotein P1234 = Polyprotein P1234 (Chikungunya virus (strain S27-African prototype) (CHIKV), UniProt Q8JUX6); test: Inhibition of N-terminal 6-His/SUMO-tagged CHIKV 181/25 nsP2 extracted from Escherichia coli Rosetta 2 preincubated for 30 mins followed by ATP addition measured after 1 hr by ADP-Glo assay
Chikungunya virus [3] = test: Inhibition of N-terminal 6-His/SUMO-tagged CHIKV 181/25 nsP2 extracted from Escherichia coli Rosetta 2 at 200 uM preincubated for 30 mins followed by ATP addition measured after 1 hr by ADP-Glo assay relative to control; settings: time 90.0 min

Chain of Polyprotein P1234 (Q8JUX6 536-1333 limits assumed): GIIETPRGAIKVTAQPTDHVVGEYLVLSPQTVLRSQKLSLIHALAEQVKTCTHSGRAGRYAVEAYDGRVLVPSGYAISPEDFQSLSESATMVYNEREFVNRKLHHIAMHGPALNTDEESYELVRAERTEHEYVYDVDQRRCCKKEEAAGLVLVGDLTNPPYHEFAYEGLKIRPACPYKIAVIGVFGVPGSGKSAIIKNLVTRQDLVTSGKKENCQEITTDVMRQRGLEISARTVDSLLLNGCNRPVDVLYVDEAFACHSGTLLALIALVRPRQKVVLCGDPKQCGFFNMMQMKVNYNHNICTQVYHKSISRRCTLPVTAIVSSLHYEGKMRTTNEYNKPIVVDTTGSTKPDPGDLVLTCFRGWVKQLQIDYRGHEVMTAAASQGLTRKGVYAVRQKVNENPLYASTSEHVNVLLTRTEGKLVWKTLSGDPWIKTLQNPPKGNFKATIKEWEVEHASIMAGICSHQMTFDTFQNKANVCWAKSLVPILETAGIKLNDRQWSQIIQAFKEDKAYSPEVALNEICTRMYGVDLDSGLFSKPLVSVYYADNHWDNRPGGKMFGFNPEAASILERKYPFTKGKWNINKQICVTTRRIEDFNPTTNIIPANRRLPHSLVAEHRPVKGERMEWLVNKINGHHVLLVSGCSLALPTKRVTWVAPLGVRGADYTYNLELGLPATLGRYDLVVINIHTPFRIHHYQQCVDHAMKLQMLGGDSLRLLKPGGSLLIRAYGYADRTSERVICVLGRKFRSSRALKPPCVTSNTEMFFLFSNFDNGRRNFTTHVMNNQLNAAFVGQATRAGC

Row | Compound | solubility kinetic [1] | EC50 (Chikungunya virus [2]) | Activity (MRC5) | pIC50 (Polyprotein P1234) | inhibition (Chikungunya virus [3]) | pEC50 (Chikungunya virus [2]; 181/25, MRC5, read-out: EC50)
1 | CCN(C)S(=O)(=O)NCC1CCOC2(CCN(C(=O)C3(c4ccccc4)CCCC3)CC2)C1 (configuration not stated) | 160 µM (≈ 76.4 µg/mL) | 3980 nM | Non-toxic | 4.80 |  | 
2 | O=C(N1CCC2(CC1)CC(CNS(=O)(=O)c1ccccc1)CCO2)C1(c2ccccc2)CCCC1 (configuration not stated) | 1 µM (≈ 0.497 µg/mL) | 3980 nM | Non-toxic | < 4.40 | 40% | 
3 | COc1cccc(C2(C(=O)N3CCC4(CC3)CC(CNS(=O)(=O)N(C)C)CCO4)CCCC2)c1 (configuration not stated) |  | 6310 nM | Non-toxic | < 4.40 | 80% | 
4 | COc1ccccc1NC(=O)NCC1CCOC2(CCN(C(=O)C3(c4ccccc4)CCCC3)CC2)C1 (configuration not stated) | < 10 µM | 3980 nM | Non-toxic |  | inactive | 
5 | O=C(NCC1CCOC2(CCN(C(=O)C3(c4ccccc4)CCCC3)CC2)C1)c1ccncc1 (configuration not stated) | 170 µM (≈ 78.5 µg/mL) | 10000 nM | Non-toxic | < 4.40 | 70% | 
6 | O=C(N1CCC2(CC1)CC(CNS(=O)(=O)C1CC1)CCO2)C1(c2ccccc2)CCCC1 (configuration not stated) | 180 µM (≈ 82.9 µg/mL) | 3980 nM | Non-toxic | 4.70 |  | 
7 | CN(C)S(=O)(=O)N(C)CC1CCOC2(CCN(C(=O)C3(c4ccccc4)CCCC3)CC2)C1 (configuration not stated) | 160 µM (≈ 76.4 µg/mL) | 1580 nM | Non-toxic | 5.30 |  | 
8 | CS(=O)(=O)NCC1CCOC2(CCN(C(=O)C3(c4ccccc4)CCCCC3)CC2)C1 (configuration not stated) | 230 µM (≈ 103 µg/mL) | 15800 nM | Non-toxic | < 4.40 | 80% | 
9 | CCS(=O)(=O)NCC1CCOC2(CCN(C(=O)C3(c4ccccc4)CCCC3)CC2)C1 (configuration not stated) | 230 µM (≈ 103 µg/mL) | 3160 nM | Non-toxic | < 4.40 | 70% | 
10 | Cc1cccc(C2(C(=O)N3CCC4(CC3)CC(CNS(=O)(=O)N(C)C)CCO4)CCCC2)c1 (configuration not stated) |  | 3980 nM | Non-toxic | < 4.40 | 90% | 
11 | COc1ccc(C(=O)NCC2CCOC3(CCN(C(=O)C4(c5ccccc5)CCCC4)CC3)C2)cc1 (configuration not stated) | 35 µM (≈ 17.2 µg/mL) | 3980 nM | Non-toxic | 4.70 |  | 
12 | O=C(CCCCl)NCC1CCOC2(CCN(C(=O)C3(c4ccccc4)CCCC3)CC2)C1 (configuration not stated) | 170 µM (≈ 78.4 µg/mL) | 316 nM | Non-toxic | 5.70 |  | 
13 | O=C(N1CCC2(CC1)CC(CN1CCCCS1(=O)=O)CCO2)C1(c2ccccc2F)CCCC1 (configuration not stated) | 190 µM (≈ 93.6 µg/mL) | 251 nM | Non-toxic | 6.00 |  | 
14 | CS(=O)(=O)NCC1CCOC2(CCN(C(=O)C3(c4cccc(Cl)c4)CCCC3)CC2)C1 (configuration not stated) |  | 2510 nM | Non-toxic | 4.70 |  | 
15 | O=C(N1CCC2(CC1)CC(CN1CCCCS1(=O)=O)CCO2)C1(c2cc(F)cc(F)c2)CCCC1 (configuration not stated) | 4 µM (≈ 2.04 µg/mL) | 100 nM | Non-toxic | 6.40 |  | 
16 | O=C1CCC(=O)N1CC1CCOC2(CCN(C(=O)C3(c4ccccc4)CCCC3)CC2)C1 (configuration not stated) | 160 µM (≈ 70.2 µg/mL) | 1000 nM | Non-toxic | 5.90 |  | 
17 | COc1ccc(NC(=O)NCC2CCOC3(CCN(C(=O)C4(c5ccccc5)CCCC4)CC3)C2)cc1 (configuration not stated) | 10 µM (≈ 5.06 µg/mL) | 3980 nM | Non-toxic | 4.70 |  | 
18 | O=C(NCC1CCOC2(CCN(C(=O)C3(c4ccccc4)CCCC3)CC2)C1)c1ccccc1 (configuration not stated) | 70 µM (≈ 32.2 µg/mL) | 2510 nM | Non-toxic | 4.80 |  | 
19 | NC(=O)NCC1CCOC2(CCN(C(=O)C3(c4ccccc4)CCCC3)CC2)C1 (configuration not stated) | 190 µM (≈ 75.9 µg/mL) | 12600 nM | Non-toxic | < 4.40 | 50% | 

Row | Compound | solubility kinetic [1] | EC50 (Chikungunya virus [2]) | Activity (MRC5) | pIC50 (Polyprotein P1234) | inhibition (Chikungunya virus [3]) | pEC50 (Chikungunya virus [2]; 181/25, MRC5, read-out: EC50)
20 | CN(C)S(=O)(=O)NCC1CCOC2(CCN(C(=O)C3(c4cccc(C(F)(F)F)c4)CCCC3)CC2)C1 (configuration not stated) |  | 100000 nM | Non-toxic | < 4.40 | 40% | 
21 | CS(=O)(=O)N(Cc1ccccc1)CC1CCOC2(CCN(C(=O)C3(c4ccccc4)CCCC3)CC2)C1 (configuration not stated) | < 1 µM | 10000 nM | Non-toxic |  | inactive | 
22 | O=C(N1CCC2(CC1)CC(Oc1ccccn1)CCO2)C1(c2ccccc2)CCCC1 (configuration not stated) | 20 µM (≈ 8.41 µg/mL) | 1260 nM | Non-toxic | < 4.40 | 60% | 
23 | O=C(NCC1CCOC2(CCN(C(=O)C3(c4ccccc4)CCCC3)CC2)C1)Nc1ccccc1 (configuration not stated) | 10 µM (≈ 4.76 µg/mL) | 1260 nM | Non-toxic | 4.80 |  | 
24 | O=C(N1CCC2(CC1)CC(CNS(=O)(=O)CCCCCl)CCO2)C1(c2ccccc2)CCCC1 (configuration not stated) | 60 µM (≈ 30.7 µg/mL) | 1260 nM | Non-toxic | 5.00 |  | 
25 | O=C(N1CCC2(CC1)CC(CNCC(F)(F)F)CCO2)C1(c2ccccc2)CCCC1 (configuration not stated) | 170 µM (≈ 74.6 µg/mL) | 12600 nM | Non-toxic | < 4.40 |  | 
26 | O=C(N1CCC2(CC1)CC(CN1CCCS1(=O)=O)CCO2)C1(c2ccccc2)CCCC1 (configuration not stated) | > 220 µM | 398 nM | Non-toxic | 5.80 |  | 
27 | CCCCCC(=O)NCC1CCOC2(CCN(C(=O)C3(c4ccccc4)CCCC3)CC2)C1 (configuration not stated) | 60 µM (≈ 27.3 µg/mL) | 2000 nM | Non-toxic | 5.20 |  | 
28 | O=C(NCC1CCOC2(CCN(C(=O)C3(c4ccccc4)CCCC3)CC2)C1)c1cccnc1 (configuration not stated) | 90 µM (≈ 41.5 µg/mL) | 2510 nM | Non-toxic | 4.90 |  | 
29 | CN(CC1CCOC2(CCN(C(=O)C3(c4ccccc4)CCCC3)CC2)C1)S(=O)(=O)CCCCl (configuration not stated) | 50 µM (≈ 25.6 µg/mL) | 398 nM | Non-toxic | 6.00 |  | 
30 | O=C(N1CCC2(CC1)CC(Nc1ccccc1)CCO2)C1(c2ccccc2)CCCC1 (configuration not stated) | 20 µM (≈ 8.37 µg/mL) | 5010 nM | Non-toxic | 4.80 |  | 
31 | O=C(N1CCC2(CC1)CC(CNS(=O)(=O)CCCCl)CCO2)C1(c2ccccc2)CCCC1 (configuration not stated) | 100 µM (≈ 49.7 µg/mL) | 631 nM | Non-toxic | 5.70 |  | 
32 | O=C(N1CCC2(CC1)CC(CNCc1ccccc1)CCO2)C1(c2ccccc2)CCCC1 (configuration not stated) | 180 µM (≈ 80.4 µg/mL) | 10000 nM | Non-toxic | < 4.40 |  | 
33 | CN(C)S(=O)(=O)NCC1CCOC2(CCN(C(=O)C3(c4ccccc4F)CCCC3)CC2)C1 (configuration not stated) |  | 5010 nM | Non-toxic | 4.50 |  | 
34 | CCCCCCN(CC1CCOC2(CCN(C(=O)C3(c4ccccc4)CCCC3)CC2)C1)S(C)(=O)=O (configuration not stated) | < 1 µM | 1580 nM | Non-toxic | 4.90 |  | 
35 | CN(C)S(=O)(=O)NCC1CCOC2(CCN(C(=O)C3(c4ccccc4Cl)CCCC3)CC2)C1 (configuration not stated) |  | 1260 nM | Non-toxic | 5.10 |  | 
36 | CN(CC1CCOC2(CCN(C(=O)C3(c4ccccc4)CCCC3)CC2)C1)S(C)(=O)=O (configuration not stated) | 180 µM (≈ 80.8 µg/mL) | 1260 nM | Non-toxic | 5.50 |  | 
37 | O=c1nc(NO)ccn1[C@@H]1O[C@H](CO)[C@@H](O)[C@H]1O [N-HYDROXYCYTIDINE] |  |  |  |  |  | 5.92
38 | O=C(NCC1CCOC2(CCN(C(=O)C3(c4ccccc4)CCCC3)CC2)C1)C1CCCCC1 (configuration not stated) | 130 µM (≈ 60.7 µg/mL) | 2510 nM | Non-toxic | 4.50 |  | 
